The values that follow come from patent US9273057B2 (Bristol-Myers Squibb Company, priority 2012, dated 2016).

SMILES strings stand for the structures. Counter-ions that a name gives are not always drawn.

Chain of CK2A1 (CK2α/β) (P68400 whole entry, species assumed): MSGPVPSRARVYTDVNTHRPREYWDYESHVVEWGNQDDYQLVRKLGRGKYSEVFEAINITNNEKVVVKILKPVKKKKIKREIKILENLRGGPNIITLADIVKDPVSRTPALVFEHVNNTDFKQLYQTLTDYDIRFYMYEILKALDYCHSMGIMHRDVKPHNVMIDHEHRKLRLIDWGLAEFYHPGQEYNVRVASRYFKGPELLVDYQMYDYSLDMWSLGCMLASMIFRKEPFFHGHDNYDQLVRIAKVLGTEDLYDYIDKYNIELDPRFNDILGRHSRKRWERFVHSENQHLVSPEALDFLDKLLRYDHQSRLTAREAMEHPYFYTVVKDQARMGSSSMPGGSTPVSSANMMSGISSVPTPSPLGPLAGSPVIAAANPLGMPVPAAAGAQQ
Chain of CK2A1 (CK2α/β) (P67870 whole entry partner, species assumed): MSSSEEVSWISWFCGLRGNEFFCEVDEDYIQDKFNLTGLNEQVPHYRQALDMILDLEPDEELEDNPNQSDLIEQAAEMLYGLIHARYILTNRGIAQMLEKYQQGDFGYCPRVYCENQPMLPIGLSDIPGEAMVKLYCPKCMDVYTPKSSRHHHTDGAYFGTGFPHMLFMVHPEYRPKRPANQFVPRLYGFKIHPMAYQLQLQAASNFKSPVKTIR

This experiment addresses CK2A1 (CK2α/β) (Homo sapiens, UniProt P68400). In words: CK2 kinase assay, CK2A1 (CK2α/β). In kind it is biochemical. The note with it: Table A; read-out: CK2A1 (CK2α/β) (IC50).
In the case of `CC(C)(O)C(=O)N1CCC(c2cc(C#N)cc(Nc3nc(NC4CC4)c4ncc(C#N)n4n3)c2Cl)CC1` [Example 231, 2-((2-chloro-5-cyano-3-(1-(2-hydroxy-2-methylpropanoyl)-4-piperidinyl)phenyl)amino)-4-(cyclopropylamino)imidazo[2,1-f][1,2,4]triazine-7-carbonitrile], the IC50 is 0.45 nM.

As to `N#Cc1cc(Nc2nc(NC3CC3)c3ncc(C#N)n3n2)c(Cl)c(N2CCN(C3CN(S(=O)(=O)CC(F)(F)F)C3)CC2)c1` [Example 507, 2-[(2-chloro-5-cyano-3-{4-[1-(2,2,2-trifluoroethanesulfonyl)azetidin-3-yl]piperazin-1-yl}phenyl)amino]-4-(cyclopropylamino)imidazo[2,1-f][1,2,4]triazine-7-carbonitrile], the IC50 is 16.9 nM.

Regarding `COC(=O)N1CCC2CN(c3cc(C#N)cc(Nc4nc(NC5CC5)c5ncc(C#N)n5n4)c3Cl)CCC21` (centres unmarked) [Example 445, methyl 5-(2-chloro-5-cyano-3-((7-cyano-4-(cyclopropylamino)imidazo[2,1-f][1,2,4]triazin-2-yl)amino)phenyl)octahydro-1H-pyrrolo[3,2-c]pyridine-1-carboxylate], the IC50 was determined as 2.9 nM.

Turning to `CCNc1nc(Nc2cc(C#N)cc(N3CC[C@@H](NC(=O)OC)[C@H](OC(=O)[C@@H](C)OP(=O)(O)O)C3)c2Cl)nn2c(C#N)cnc12` [Example 342, (R)-(3R,4R)-1-(2-chloro-5-cyano-3-((7-cyano-4-(ethylamino)imidazo[2,1-f][1,2,4]triazin-2-yl)amino)phenyl)-4-((methoxycarbonyl)amino)piperidin-3-yl 2-(phosphonooxy)propanoate], the IC50 worked out at 0.37 nM.

As to `CN1CCC2(CC1)CCN(c1cc(C#N)cc(Nc3nc(NC4CC4)c4ncc(C#N)n4n3)c1Cl)C2` (racemic) [Example 26, (+/−) 2-((2-chloro-5-cyano-3-(8-methyl-2,8-diazaspiro[4.5]dec-2-yl)phenyl)amino)-4-(cyclopropylamino)imidazo [2,1-f][1,2,4]triazine-7-carbonitrile], the IC50 came out at 1.03 nM.

As to `COC(C)CN1CCN(c2cc(C#N)cc(Nc3nc(NC4CC4)c4ncc(C#N)n4n3)c2Cl)CC1` (centres unmarked) [Example 596, 2-({2-chloro-5-cyano-3-[4-(2-methoxypropyl)piperazin-1-yl]phenyl}amino)-4-(cyclopropylamino)imidazo [2,1-f][1,2,4]triazine-7-carbonitrile], the IC50 stood at 0.6 nM.

Turning to `N#Cc1cc(Nc2nc(NC3CC3)c3ncc(C#N)n3n2)c(Cl)c(N2CCN(C3(CCO)COC3)CC2)c1` [Example 537, 2-((2-chloro-5-cyano-3-(4-(3-(2-hydroxyethyl)oxetan-3-yl)piperazin-1-yl)phenyl)amino)-4-(cyclopropylamino)imidazo[2,1-f][1,2,4]triazine-7-carbonitrile], the IC50 is 1.04 nM.

Consider `CCNc1nc(Nc2cc(C#N)cc(N3CCC(NC(=O)OC)CC3)c2Cl)nn2c(C#N)cnc12` [Example 330, methyl (1-(2-chloro-5-cyano-3-((7-cyano-4-(ethylamino)imidazo[2,1-f][1,2,4]triazin-2-yl)amino)phenyl)piperidin-4-yl)carbamate], for which the IC50 amounted to 0.55 nM.

For the compound `COC(=O)N[C@@H]1CN(c2cc(C#N)cc(Nc3nc(NC4CC4)c4ncc(C#N)n4n3)c2Cl)C[C@@H]1C` [Example 293, methyl ((3S,4S)-1-(2-chloro-5-cyano-3-((7-cyano-4-(cyclopropylamino)imidazo[2,1-f][1,2,4]triazin-2-yl)amino)phenyl)-4-methyl-3-pyrrolidinyl)carbamate], the IC50 was 1.89 nM.

`N#Cc1cc(Nc2nc(NC3CC3)c3ncc(C#N)n3n2)c(Cl)c(N2CCN(C3CCC3=O)CC2)c1` (centres unmarked) [Example 62, 2-((2-chloro-5-cyano-3-(4-(2-oxocyclobutyl)piperazin-1-yl)phenyl)amino)-4-(cyclopropylamino) imidazo[2,1-f][1,2,4] triazine-7-carbonitrile]: the IC50 is 3.02 nM.

For the compound `CS(=O)(=O)N1CCN(Cc2cc(C#N)cc(Nc3nc(NC4CC4)c4ncc(C#N)n4n3)c2Cl)CC1` [Example 401, 2-((2-chloro-5-cyano-3-((4-(methylsulfonyl)piperazin-1-yl)methyl)phenyl)amino)-4-(cyclopropylamino)imidazo[2,1-f][1,2,4]triazine-7-carbonitrile], the IC50 was 0.38 nM.

Consider `CCNc1nc(Nc2cc(C#N)cc(C3CCN(C4CN(C(C)=O)C4)CC3)c2Cl)nn2c(C#N)cnc12` [Example 356, 2-((3-(1-(1-acetyl-3-azetidinyl)-4-piperidinyl)-2-chloro-5-cyanophenyl)amino)-4-(ethylamino)imidazo [2,1-f][1,2,4]triazine-7-carbonitrile], for which the IC50 amounted to 0.72 nM.

Regarding `CN1CCN(CCCc2cc(C#N)cc(Nc3nc(NC4CC4)c4ncc(C#N)n4n3)c2Cl)CC1` [Example 577, 2-((2-chloro-5-cyano-3-(3-(4-methylpiperazin-1-yl)propyl)phenyl)amino)-4-(cyclopropylamino)imidazo[2,1-f][1,2,4]triazine-7-carbonitrile], the IC50 is 0.72 nM.

As to `CCNc1nc(Nc2cc(C#N)cc(N3CC[C@@H](NC(=O)OC)[C@H](OC(=O)C[C@H](N)C(=O)OC(C)(C)C)C3)c2Cl)nn2c(C#N)cnc12` [Example 815, (S)-1-tert-butyl 4-((3R,4R)-1-(2-chloro-5-cyano-3-((7-cyano-4-(ethylamino)imidazo[2,1-f][1,2,4]triazin-2-yl)amino)phenyl)-4-((methoxycarbonyl)amino)piperidin-3-yl) 2-aminosuccinate hydrochloride], the IC50 was 18.7 nM.

For `CC(=O)N[C@@H]1CCN(c2cc(C#N)cc(Nc3nc(NC4CC4)c4ncc(C#N)n4n3)c2Cl)C[C@H]1O` (racemic) [Example 172, (+/−)-N-((3R,4R)-1-(2-chloro-5-cyano-3-((7-cyano-4-(cyclopropylamino)imidazo[2,1-f][1,2,4]triazin-2-yl)amino)phenyl)-3-hydroxypiperidin-4-yl)acetamide], the IC50 came to 0.51 nM.

On to `N#Cc1cc(Nc2nc(NC3CC3)c3ncc(C#N)n3n2)c(Cl)c(N2CC[C@@H](N)C2)c1` [Example 46, (R)-2-(3-(3-aminopyrrrolidin-1-yl)-2-chloro-5-cyanophenylamino)-4-(cyclopropylamino)imidazo [1,2-f][1,2,4]triazine-7-carbonitrile], for which the IC50 came out at 1.31 nM.

As to `CN1CCN(c2cc(C#N)cc(Nc3nc(NC4CC4)c4ncc(C#N)n4n3)c2)C(=O)C1` [Example 629, 2-((3-cyano-5-(4-methyl-2-oxopiperazin-1-yl)phenyl)amino)-4-(cyclopropylamino)imidazo[2,1-f][1,2,4]triazine-7-carbonitrile], the IC50 worked out at 6 nM.

Consider `CN1CCOC(c2cc(C#N)cc(Nc3nc(NC4CC4)c4ncc(C#N)n4n3)c2Cl)C1` (racemic) [Example 694, (+/−)-2-((2-chloro-5-cyano-3-(4-methylmorpholin-2-yl)phenyl)amino)-4-(cyclopropylamino)imidazo[2,1-f][1,2,4]triazine-7-carbonitrile], for which the IC50 came to 1.48 nM.

Consider `N#Cc1cc(Nc2nc(NC3CC3)c3ncc(C#N)n3n2)c(Cl)c(C2CCN(C3CCC3O)CC2)c1` (single isomer, unassigned) [Example 646, Cis and trans 2-((2-chloro-5-cyano-3-(1-(2-hydroxycyclobutyl)piperidin-4-yl)phenyl)amino)-4-(cyclopropylamino)imidazo[2,1-f][1,2,4]triazine-7-carbonitrile], for which the IC50 was 1.48 nM.

As to `CC1(C)CN2CCN(c3cc(C#N)cc(Nc4nc(NC5CC5)c5ncc(C#N)n5n4)c3Cl)C[C@H]2CO1` [Example 303, (S)-2-((2-chloro-5-cyano-3-(3,3-dimethylhexahydropyrazino[2,1-c][1,4]oxazin-8(1H)-yl)phenyl)amino)-4-(cyclopropylamino)imidazo[2,1-f][1,2,4]triazine-7-carbonitrile, HCl], the IC50 came out at 0.69 nM.

Consider `CC(C)(C)NCC(O)c1cc(C#N)cc(Nc2nc(NC3CC3)c3ncc(C#N)n3n2)c1Cl` (centres unmarked) [Example 692, 2-((3-(2-(tert-butylamino)-1-hydroxyethyl)-2-chloro-5-cyanophenyl)amino)-4-(cyclopropylamino)imidazo[2,1-f][1,2,4]triazine-7-carbonitrile], for which the IC50 came out at 1.81 nM.

With `COCC(NC1CCN(c2cc(C#N)cc(Nc3nc(NC4CC4)c4ncc(C#N)n4n3)c2Cl)CC1)C1CC1` (racemic) [Example 142, (+/−) 2-((2-chloro-5-cyano-3-(4-((1-cyclopropyl-2-methoxyethyl)amino)-1-piperidinyl)phenyl)amino)-4-(cyclopropylamino)imidazo [2,1-f][1,2,4]triazine-7-carbonitrile], the IC50 was determined as 0.67 nM.

`CCNc1nc(Nc2cc(C#N)cc(N3CC[C@@H]4[C@@H](C3)OC(=O)N4[C@H]3CCOC3)c2Cl)nn2c(C#N)cnc12` (single isomer, unassigned) [Example 844]: the IC50 is 1.83 nM.

Turning to `CC(C)(O)C1CN(C2CN(c3cc(C#N)cc(Nc4nc(NC5CC5)c5ncc(C#N)n5n4)c3Cl)C2)CCO1` (racemic) [Example 165, (+/−)2-(2-chloro-5-cyano-3-(3-(2-(2-hydroxypropan-2-yl)morpholino)azetidin-1-yl)phenylamino)-4-(cyclopropylamino)imidazo [1,2-f][1,2,4]triazine-7-carbonitrile], the IC50 was 0.54 nM.

For the compound `CN1CCC(N2CCN(c3cc(C#N)cc(Nc4nc(NC5CC5)c5ncc(C#N)n5n4)c3Cl)CC2)CC1` [Example 15, 2-((2-chloro-5-cyano-3-(4-(1-methyl-4-piperidinyl)-1-piperazinyl)phenyl)amino)-4-(cyclopropylamino)imidazo [2,1-f][1,2,4]triazine-7-carbonitrile], the IC50 came out at 1.98 nM.

Turning to `N#Cc1cc(Nc2nc(NC3CC3)c3ncc(C#N)n3n2)c(Cl)c(N2CCC(NC3CS(=O)(=O)C3)CC2)c1` [Example 129, 2-((2-chloro-5-cyano-3-(4-((1,1-dioxido-3-thietanyl)amino)-1-piperidinyl)phenyl)amino)-4-(cyclopropylamino)imidazo [2,1-f][1,2,4]triazine-7-carbonitrile], the IC50 turned out to be 5.13 nM.
